Columns and labels:
[1] = molecular target: Human immunodeficiency virus type 1 protease (Human immunodeficiency virus 1, UniProt Q72874); assay: Ability to inhibit purified recombinant HIV-1 protease.
Cathepsin D = Cathepsin D (Homo sapiens, UniProt P07339); assay: Ability to inhibit the human Native cathepsin D aspartic protease enzyme
Cathepsin E = molecular target: T1, Cathepsin E (Homo sapiens, UniProt P14091); assay: Ability to inhibit the human Native cathepsin E aspartic protease enzyme
T1 sequence (P14091 whole entry): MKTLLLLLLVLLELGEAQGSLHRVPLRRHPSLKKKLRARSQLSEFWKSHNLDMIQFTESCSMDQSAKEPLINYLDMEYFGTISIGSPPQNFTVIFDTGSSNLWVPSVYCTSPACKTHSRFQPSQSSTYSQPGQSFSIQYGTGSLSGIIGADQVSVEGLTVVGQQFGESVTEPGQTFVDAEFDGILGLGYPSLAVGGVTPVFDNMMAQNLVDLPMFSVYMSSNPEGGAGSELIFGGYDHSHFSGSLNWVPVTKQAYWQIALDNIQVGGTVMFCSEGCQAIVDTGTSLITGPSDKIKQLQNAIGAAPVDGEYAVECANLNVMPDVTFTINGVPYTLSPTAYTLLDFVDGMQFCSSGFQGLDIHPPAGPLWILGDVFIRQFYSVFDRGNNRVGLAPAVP

[2] = In vitro toxic concentration against HIV-1 IIIb H9-infected cells; type: cell-based; conditions: human, HIV-1 IIIb-infected H9 cells; read-out: TC50 (the source's name)
Renin = molecular target: T2, Renin (Homo sapiens, UniProt P00797); assay: Ability to inhibit the human recombinant renin aspartic protease enzyme
T2 sequence (P00797 whole entry): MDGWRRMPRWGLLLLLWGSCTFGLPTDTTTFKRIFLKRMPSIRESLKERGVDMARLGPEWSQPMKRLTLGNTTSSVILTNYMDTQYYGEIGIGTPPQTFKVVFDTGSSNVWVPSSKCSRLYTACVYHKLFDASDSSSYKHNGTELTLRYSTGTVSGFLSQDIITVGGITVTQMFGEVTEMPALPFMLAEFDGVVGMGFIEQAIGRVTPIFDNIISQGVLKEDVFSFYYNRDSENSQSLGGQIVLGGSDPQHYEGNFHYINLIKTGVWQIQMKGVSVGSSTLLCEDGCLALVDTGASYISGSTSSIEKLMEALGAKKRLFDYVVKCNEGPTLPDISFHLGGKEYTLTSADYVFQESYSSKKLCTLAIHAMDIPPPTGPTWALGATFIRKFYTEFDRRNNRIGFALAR

Cathepsin D, sequence (P07339 65-162 limits assumed): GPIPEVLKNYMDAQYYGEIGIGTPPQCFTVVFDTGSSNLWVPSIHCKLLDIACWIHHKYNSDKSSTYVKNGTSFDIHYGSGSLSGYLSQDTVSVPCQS
Cathepsin D, sequence (P07339 169-412 limits assumed): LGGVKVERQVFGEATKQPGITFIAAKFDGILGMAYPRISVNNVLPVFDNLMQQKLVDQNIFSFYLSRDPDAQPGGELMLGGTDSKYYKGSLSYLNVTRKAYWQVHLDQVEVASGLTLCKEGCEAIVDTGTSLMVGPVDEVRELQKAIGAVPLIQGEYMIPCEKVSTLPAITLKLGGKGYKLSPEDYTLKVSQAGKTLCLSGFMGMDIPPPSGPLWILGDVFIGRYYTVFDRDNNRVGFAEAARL

SMILES	IC50 [1]	CC50 [2]	other results
O=c1cc(-c2ccccc2)oc(O)c1C(CC1CCCC1)SC1CCCCC1 (stereo unspecified)	541 nM	–	–
O=c1cc(-c2ccccc2)oc(O)c1C(CC1CC1)SC1CCCC1 (stereo unspecified)	–	–	Ki [1]: 0.069 nM
CC(C)CC(SC1CCCC1)c1c(O)cc(-c2ccccc2)oc1=O (stereo unspecified)	58 nM	28000 nM	IC50 (Cathepsin D): > 40000 nM; IC50 (Cathepsin E): > 40000 nM; IC50 (Renin): > 10000 nM
CC(C)CC(Sc1ccccc1)c1c(O)cc(-c2ccccc2)oc1=O (stereo unspecified)	410 nM	–	–
CC(C)(C)CC(SC1CCCCC1)c1c(O)cc(-c2ccccc2)oc1=O (stereo unspecified)	300 nM	–	–
O=c1cc(-c2ccccc2)oc(O)c1C(CC1CC1)SCc1ccccc1 (stereo unspecified)	84 nM	68000 nM	IC50 (Cathepsin D): > 40000 nM; IC50 (Cathepsin E): > 40000 nM; IC50 (Renin): > 10000 nM
CC(C)CCC(Sc1ccccc1)c1c(O)cc(-c2ccccc2)oc1=O (stereo unspecified)	390 nM	–	–
CC(C)CC(SCc1ccccc1)c1c(O)cc(-c2ccccc2)oc1=O (stereo unspecified)	260 nM	67000 nM	–
O=c1cc(-c2ccccc2)oc(O)c1C(SCc1ccccc1)c1ccccc1 (stereo unspecified)	480 nM	61000 nM	–
O=c1cc(-c2ccccc2)oc(O)c1C(Sc1ccc2ccccc2c1)c1ccccc1 (stereo unspecified)	2450 nM	–	–
O=c1cc(-c2ccccc2)oc(O)c1C(Sc1ccccc1)c1ccccc1 (stereo unspecified)	780 nM	–	–
O=c1cc(-c2ccccc2)oc(O)c1C(Sc1ccccc1)C1CCCCC1 (stereo unspecified)	2440 nM	–	–
CC(C)CC(SCC1CCCCC1)c1c(O)cc(-c2ccccc2)oc1=O (stereo unspecified)	848 nM	–	–
O=c1cc(-c2ccccc2)oc(O)c1C(CC1CC1)SC1CCCCC1 (stereo unspecified)	147 nM	67000 nM	–
O=c1cc(-c2ccccc2)oc(O)c1C(Sc1ccccc1)c1ccc2ccccc2c1 (stereo unspecified)	7820 nM	–	–
O=c1cc(-c2ccccc2)oc(O)c1C(SC1CCCC1)C1CCCC1 (stereo unspecified)	225 nM	70000 nM	–
CC(C)CC(SC1CCCCC1)c1c(O)cc(-c2ccccc2)oc1=O (stereo unspecified)	320 nM	–	–
O=c1cc(-c2ccccc2)oc(O)c1C(SC1CCCCC1)c1ccccc1 (stereo unspecified)	480 nM	–	–
O=c1cc(-c2ccccc2)oc(O)c1CSc1ccccc1	84300 nM	–	–

Source: ChEMBL document CHEMBL1128706, “Nonpeptidic potent HIV-1 protease inhibitors: (4-hydroxy-6-phenyl-2-oxo-2H- pyran-3-yl)thiomethanes that span P1-P2' subsites in a unique mode of active site binding” (J Med Chem, 1995)
